Data from US5508269A, “Aminoglycoside formulation for aerosolization” (priority 1994, dated 1996).
In brackets after ≈: the same amount, converted by molar mass. Several values for one entry are separate records, joined by “and”; a condition that tells them apart may be missing. Equal values may be shown once. Read-outs that look alike come from different tables or passages of the source.

Columns and labels:
[1] = cited from earlier work; for health of CF patients (in words): aerosol administration, carbenicillin and gentamicin, twenty CF patients, Lancet 1981
[2] = tested on: Pseudomonas aeruginosa; experiment: MIC of tobramycin for P. aeruginosa isolates from sputum of CF patients; assay type: cell-based; details: for # of Patients (isolate with maximum density) / Cumulative Frequency (isolate with maximum density): most common isolate; for Cumulative Frequency (isolate with maximum MIC): most resistant isolate
Experimental: This study was a one-year review of all microbiologic records at Children's Hospital in Seattle. All positive Pseudomonas aeruginosa culture data were collated that occurred in patients with Cystic Fibrosis. If multiple cultures from a single individual had been obtained, the first culture was taken as representative.
MIC90 is the concentration of the drug which inhibits 90% of Pseudomonas aeruginosa isolates. Sputum samples from CF patients were cultured to produce individual colony forming units (CFUs). The MIC was then determined for individual CFUs. CFUs were considered different isolates if their MICs were different.

[3] = clinical; assay type: in vivo, CF patients; details: for Sputum Tobramycin Concentrations / Serum Tobramycin: Baseline; for Sputum Tobramycin Concentrations: per subject or mean line; for Serum Tobramycin / concentration at 1 h / concentration at 2 h: single subjects 001-005 in order; for concentration at 10 min / concentration at 1 h / concentration at 2 h: human, inhaled or intranasal, 300 mg; for concentration at 1 h: 1 hour after aerosol; for concentration at 2 h: 2 hours after aerosol
Text: The doses were separated by at least 2 days and not more than 5 days.

[4] = assay type: in vivo, CF patients; details: for ± % change FEV1: 30 min after aerosol, 300 mg in 5 ml 1/4 NS, single subjects 001-005 in order
Experimental: The doses were separated by at least 2 days and not more than 5 days. Peak serum and sputum concentrations were assessed and results are seen in Tables 5 and 6.
(§1) Sixty patients were enrolled. Each patient received, in random order, one administration from each nebulizer delivery system. Each aerosol administration was separated by a minimum of 48 hr. […] Airway irritation and acute bronchospasm were assessed by measuring spirometry immediately prior to and 30 min post-completion of aerosol administration. A decrease in FEV1>15% in the 30 min spirometry test was considered evidence of bronchospasm.

[5] = Clinical Trial II, sputum tobramycin levels with three nebulizers; assay type: in vivo, patients with cystic fibrosis; details: for sputum tobramycin level, grand mean: 20 patients
Experimental: This was an open label, multicenter, randomized, cross-over three arm study. Each arm was different nebulizer delivery system. Two arms deliver the same tobramycin formulation.
2. […] The number of inhalations required as recorded.
3. […] The number of inhalations required was recorded.
as §1, with “Sixty patients were enrolled.” left out
Immediately after completing the aerosol therapy, the subject rinsed with 30 ml of normal saline through the mount, gargled for 5-10 seconds and expectorated the rinse. This was repeated for a total of three rinses. Sputum specimens were collected at 10 minutes after rinsing oral cavity and 2 hours after completion of the aerosol drug administration. […] Spirometry was obtained 30 minutes following completion of the aerosol drug administration. Following the last aerosol treatment of the study, patients received a brief physical exam after post-spirometry has been measured.

[6] = Accelerated stability study at 40° C; assay type: physicochemical; details: pH greater than 7.0
Text: The higher temperature was chosen to accelerate any degradation process. […] Color was examined by KS scale.

[7] = Preliminary pharmacokinetics of tobramycin in sputum after aerosol; assay type: in vivo, patients with CF; details: 20 mg/ml in 30 ml half normal saline; for Cmax: Ultraneb 99, 200 inhalations, twenty patients
Experimental: These levels ranged from 310.4 μg/gm to 5,941 μg/gm, with median level at 1,606 μg/gm). The sputum levels declined rapidly after 30 minutes, reaching a minimum at four hours.

[8] = tested on: Pseudomonas aeruginosa; experiment: Previously studied 80 mg doses of tobramycin; assay type: in vivo, patients; details: initially
Text: If any degree of drug resistance developed, only a small percentage of patients would be effectively treated.

[9] = tested on: P. aeruginosa; details: cited from earlier work
[10] = cited from earlier work
[11] = cited from earlier work; remark: listed apart in the source
[12] = tested on: Pseudomonas aeruginosa; details: Pedia Pulmonol. 6:91-8 (1989); cited from earlier work
[13] = Sidestream, 300 mg in 5 ml 1/4 NS
[14] = serum, Serum Tobramycin, Pari LC, 300 mg in 5 ml 1/4 NS

CC1(C)S[C@@H]2[C@H](NC(=O)C(C(=O)O)c3ccccc3)C(=O)N2[C@H]1C(=O)O (stereo partly shown) [carbenicillin]
health of CF patients (in words) [1]: can improve the health of CF patients

gentamicin
health of CF patients (in words) [1]: can improve the health of CF patients

NC[C@H]1O[C@H](O[C@H]2[C@H](O)[C@@H](O[C@H]3O[C@H](CO)[C@@H](O)[C@H](N)[C@H]3O)[C@H](N)C[C@@H]2N)[C@H](N)C[C@@H]1O [tobramycin]
share of isolates whose MIC is exceeded approximately ten-fold by a sputum level of 128 μg/gm ([2]; 128 μg/gm sputum level approximately ten-fold greater than MIC): 90%
share of isolates whose MIC is reached by a sputum level of 128 μg/gm ([2]; 128 μg/gm sputum level greater than or equal to MIC): 98%
# of Patients (isolate with maximum density) ([2]; MIC 1 μg/ml, n=58): 9
Cumulative Frequency (isolate with maximum density) ([2]; MIC 1 μg/ml, n=58): 78%
Cumulative Frequency (isolate with maximum MIC) ([2]; MIC 1 μg/ml, n=58): 67%
# of Patients (isolate with maximum density) ([2]; MIC 2 μg/ml, n=58): 3
Cumulative Frequency (isolate with maximum density) ([2]; MIC 2 μg/ml, n=58): 83%
Cumulative Frequency (isolate with maximum MIC) ([2]; MIC 2 μg/ml, n=58): 75%
# of Patients (isolate with maximum density) ([2]; MIC 4 μg/ml, n=58): 2
Cumulative Frequency (isolate with maximum density) ([2]; MIC 4 μg/ml, n=58): 86%
Cumulative Frequency (isolate with maximum MIC) ([2]; MIC 4 μg/ml, n=58): 83%
# of Patients (isolate with maximum density) ([2]; MIC 8 μg/ml, n=58): 2
Cumulative Frequency (isolate with maximum density) ([2]; MIC 8 μg/ml, n=58): 90%
Cumulative Frequency (isolate with maximum MIC) ([2]; MIC 8 μg/ml, n=58): 86%
# of Patients (isolate with maximum density) ([2]; MIC 16 μg/ml, n=58): 2
Cumulative Frequency (isolate with maximum density) ([2]; MIC 16 μg/ml, n=58): 93%
Cumulative Frequency (isolate with maximum MIC) ([2]; MIC 16 μg/ml, n=58): 90%
# of Patients (isolate with maximum density) ([2]; MIC 32 μg/ml, n=58): 1
Cumulative Frequency (isolate with maximum density) ([2]; MIC 32 μg/ml, n=58): 95%
Cumulative Frequency (isolate with maximum MIC) ([2]; MIC 32 μg/ml, n=58): 93%
# of Patients (isolate with maximum density) ([2]; MIC 64 μg/ml, n=58): 1
Cumulative Frequency (isolate with maximum density) ([2]; MIC 64 μg/ml, n=58): 97%
Cumulative Frequency (isolate with maximum MIC) ([2]; MIC 64 μg/ml, n=58): 95%
# of Patients (isolate with maximum density) ([2]; MIC 128 μg/ml, n=58): 2
Cumulative Frequency (isolate with maximum density) ([2]; MIC 128 μg/ml, n=58): 98%
Cumulative Frequency (isolate with maximum MIC) ([2]; MIC 128 μg/ml, n=58): 98%
# of Patients (isolate with maximum density) ([2]; MIC 256 μg/ml, n=58): 1
Cumulative Frequency (isolate with maximum density) ([2]; MIC 256 μg/ml, n=58): 100%
Cumulative Frequency (isolate with maximum MIC) ([2]; MIC 256 μg/ml, n=58): 100%
# of Patients (isolate with maximum density) ([2]; MIC .25 μg/ml, n=58): 26
Cumulative Frequency (isolate with maximum density) ([2]; MIC .25 μg/ml, n=58): 45%
Cumulative Frequency (isolate with maximum MIC) ([2]; MIC .25 μg/ml, n=58): 36%
# of Patients (isolate with maximum density) ([2]; MIC .5 μg/ml, n=58): 10
Cumulative Frequency (isolate with maximum density) ([2]; MIC .5 μg/ml, n=58): 63%
Cumulative Frequency (isolate with maximum MIC) ([2]; MIC .5 μg/ml, n=58): 53%
MIC ([2]; Pseudomonas aeruginosa): 128 µg/mL
inhibition at 128 µg/mL ([2]; Pseudomonas aeruginosa, read-out: inhibition of most resistant and most common isolates): 98%
MIC ([2]; Table 3: most tobramycin-resistant isolate of each patient, n=58, number of patients on same line): .25 µg/mL and .5 µg/mL and 1 µg/mL and 2 µg/mL and 4 µg/mL and 8 µg/mL and 16 µg/mL and 32 µg/mL and 64 µg/mL and 256 µg/mL
MIC ([2]; Table 4: most common isolate (maximum density) of each patient, n=58, number of patients on same line): .25 µg/mL and .5 µg/mL and 1 µg/mL and 2 µg/mL and 4 µg/mL and 8 µg/mL and 16 µg/mL and 32 µg/mL and 64 µg/mL and 128 µg/mL and 256 µg/mL
Sputum Tobramycin Concentrations ([3]; Pari LC, 300 mg in 5 ml 1/4 NS): bql (< 20 μg/gm)
Serum Tobramycin ([3]; Pari LC, 300 mg in 5 ml 1/4 NS): not detected
achievement of target sputum concentration (in words) ([3]; Sidestream and Pari LC, target 128-1000 μg/g, 300 mg in 5 ml 1/4 NS): able to achieve a target concentrations of tobramycin in sputum
Sputum Tobramycin Concentrations [3, 13]: bql (< 20 μg/gm)
Serum Tobramycin [3, 13]: not detected
concentration at 10 min ([3]; in vivo, Sidestream, 10 min, 5 subjects): 527000 ± 586000 ng/g
concentration at 1 h [3, 14]: 500 ng/mL
concentration at 2 h [3, 14]: 400 ng/mL
concentration at 1 h ([3]; serum, Serum Tobramycin, Sidestream, 300 mg in 5 ml 1/4 NS): 200 ng/mL
concentration at 10 min ([3]; sputum, 300 mg in 5 ml of 60 mg/ml in 1/4 NS, read-out: sputum concentration achieved (target concentration)): > 128000 ng/g
concentration at 10 min ([3]; sputum, Sputum Tobramycin Concentrations, Mean/Std Dev, Pari LC, 10 min, 5 subjects): 811000 ± 677000 ng/g
concentration at 2 h ([3]; sputum, Sputum Tobramycin Concentrations, Sidestream, 300 mg in 5 ml 1/4 NS): 57500 ng/g
safety of dosage (in words) ([4]; 300 mg in 5 ml of 60 mg/ml in 1/4 NS): extremely safe
± % change FEV1 ([4]; Pari LC): -1.2% and 1.2% and -0.6% and -2% and -5%
± % change FEV1 ([4]; Sidestream): -2.2% and 0.0% and -7.6% and -1%
sputum tobramycin level, grand mean ([5]; Pari LC, 0, 300 mg in 5 ml 0.225 NS): 0 µg
sputum tobramycin level, grand mean ([5]; Pari LC, 10 min, 300 mg in 5 ml 0.225 NS): 639.1 µg
sputum tobramycin level, grand mean ([5]; Pari LC, 1 hr, 300 mg in 5 ml 0.225 NS): 117.0 µg
sputum tobramycin level, grand mean ([5]; Pari LC, 2 hr, 300 mg in 5 ml 0.225 NS): 77.6 µg
sputum tobramycin level, grand mean ([5]; Sidestream, 0 hr, 300 mg in 5 ml 0.225 NS): 0 µg
sputum tobramycin level, grand mean ([5]; Sidestream, 10 min, 300 mg in 5 ml 0.225 NS): 465.3 µg
sputum tobramycin level, grand mean ([5]; Sidestream, 1 hr, 300 mg in 5 ml 0.225 NS): 75.7 µg
sputum tobramycin level, grand mean ([5]; Sidestream, 2 hr, 300 mg in 5 ml 0.225 NS): 88.8 µg
sputum tobramycin level, grand mean ([5]; Ultra Neb, 0 hr, 600 mg in 30 ml 0.45% NS): 0 µg
sputum tobramycin level, grand mean ([5]; Ultra Neb, 10 min, 600 mg in 30 ml 0.45% NS): 1335.7 µg
sputum tobramycin level, grand mean ([5]; Ultra Neb, 1 hr, 600 mg in 30 ml 0.45% NS): 360.0 µg
sputum tobramycin level, grand mean ([5]; Ultra Neb, 2 hr, 600 mg in 30 ml 0.45% NS): 158.8 µg
concentrations delivered to the endobronchial space (in words) ([5]; formulation used with a jet nebulizer): in the efficacious range
endobronchial concentration with half dosage (in words) ([5]; human, in vivo): sufficient to achieve therapeutically effective concentration of tobramycin in the endobronchial space
degradation of tobramycin (in words) [6]: degradation of tobramycin occurs
time of minimum sputum level ([7]; Ultraneb 99): four
Cmax ([7]; human, sputum, inhaled or intranasal, read-out: peak sputum level, median): 1.61e+06 ng/g
Cmax ([7]; human, sputum, inhaled or intranasal, read-out: peak sputum levels, range): 310000 to 5.94e+06 ng/g
Tmax ([7]; human, sputum, inhaled or intranasal, Ultraneb 99, read-out: time of peak sputum levels after therapy): 10 to 30 min
share of patients in whom dose would be predicted to be efficacious [8]: sixty to seventy
reduction in the density of P. aeruginosa in sputum, factor ([9]; aerosolized, all three 28-day periods): 100
improvement with aerosolized treatment (in words) ([9]; entire three-period study): significant improvement
solubility [10]: 160 mg/mL (≈ 342 mM)
binding by sputum [11]: up to 90%
treatment of exacerbations in CF (in words) ([1]; parenteral, short period of time): successfully treat exacerbations which occur in patients with CF
efficacy of 80 mg doses (in words) [12]: reported effective
